Assay results reported in the METLIN SMRT retention time set (Domingo-Almenara et al. 2019).

Assay: gradient 5% acetonitrile 3 min, to 50% in 2 min, to 85% in 15 min, held 3 min, 100 µL/min
Conditions: column: Zorbax Extend-C18 2.1 x 50 mm; eluents: water / acetonitrile, 0.1% formic acid
Outline: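 The mobile phases were water and acetonitrile, each with 0.1% formic acid, pumped at 100 μL/min through a Zorbax Extend-C18 column (2.1 × 50 mm, 1.8 μm). Pure standards were injected as mixtures of ~100 molecules and detected by a quadrupole time-of-flight mass spectrometer in positive and negative ionization mode. Retention time came from computationally picked adduct peaks, each inspected by hand.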

Row | RP-LC retention time [s] | SMILES
1 | 859 | COc1ccccc1NC(=O)Cn1nc2c(Oc3ccc(Cl)cc3)nccn2c1=O
2 | 672 | CC1CCN(C(=O)c2ccc(Cn3cncn3)cc2)CC1
3 | 856 | CCOC(=O)c1ccc(Nc2c(-c3ccc(C(=O)OC)cc3)nc3cnccn23)cc1
4 | 676 | COc1ccc(OC)c(CNC(=O)c2[nH]c3cc(C)sc3c2CN(C)C)c1
5 | 923 | O=C1CC(c2nc(-c3ccc4c(c3)OCO4)no2)CN1c1ccc(F)cc1 (stereo not given)
6 | 1080 | COc1cc(OC)cc(-c2nnc(Cc3nc(-c4cccc(C)c4)no3)o2)c1
7 | 777 | COc1ccc(Cn2c(=O)c3ccnn3c3ccc(C(=O)O)cc32)cc1
8 | 953 | COc1ccccc1OCC(=O)NCCc1sc(-c2ccc(Cl)cc2)nc1C
9 | 797 | CCOC(=O)C1CCN(S(=O)(=O)c2cc(-c3c(CC)noc3NC(C)=O)ccc2OC)CC1
10 | 1270 | Cc1cc(C)c(S(=O)(=O)N2CCCC2c2nc(-c3cccc(F)c3)no2)cc1C (stereo not given)
11 | 876 | COc1ccc(C(=O)N2CCCC2c2nc(-c3ccc(OC)c(OC)c3)no2)cc1F (stereo not given)
12 | 920 | O=C(Cn1ccc2ccc(N3CCOCC3)nc21)NCc1ccc(F)c(Cl)c1
13 | 716 | Cc1ccc(-c2nnc(-c3ccc(-n4ccnc4)nc3)o2)cc1F
14 | 1060 | Cc1ccc(N2CC(c3noc(-c4ccc(F)cc4Cl)n3)CC2=O)cc1 (stereo not given)
15 | 561 | COCCn1c(C2CCN(C(=O)c3cc(Cl)ccc3OC)C2)nc2ccncc21 (stereo not given)
16 | 570 | COc1cc(OC)cc(C(=O)N2CCN(c3cc(-c4cccnc4)[nH]n3)CC2)c1

Row | RP-LC retention time [s] | SMILES
17 | 1010 | COC(=O)c1cccc(-c2nc(-c3nnn(Cc4ccccc4)c3C)no2)c1
18 | 1140 | COc1ccc(S(=O)(=O)N2CCC(c3noc(-c4ccccc4)n3)CC2)cc1Cl
19 | 825 | COc1ccc(-c2cc3n(n2)C(NCc2cccs2)CNC3=O)cc1 (stereo not given)
20 | 771 | Cc1ccc2c(Nc3cc(F)ccc3F)c(C(=O)OC(C)C)cnc2n1
21 | 1010 | COc1ccc(Cl)cc1C(=O)NC1(c2nc(C)no2)CCCCC1
22 | 613 | CCN1CCN(C(=O)CC(c2cc(OC)c(OC)c(OC)c2)N2Cc3ccccc3C2=O)CC1 (stereo not given)
23 | 736 | Cc1ccn2c(Nc3ccc4c(c3)OCO4)c(-c3ccc(Cl)cc3)nc2c1
24 | 826 | COC(=O)c1cc(S(=O)(=O)N2CCCC2C(=O)Nc2cccc(OC)c2)cn1C (stereo not given)
25 | 751 | O=C(NC1CC1)c1ccc(OCC2CCCN2C(=O)c2ccccc2F)cc1 (stereo not given)
26 | 909 | Cc1ccc(N2CCC(NC(=O)Nc3ccccc3Cl)C2=O)cc1C (stereo not given)
27 | 979 | CCOC(=O)c1c(C)oc2nc(C)nc(N3CCN(c4ccc(OC)cc4)CC3)c12
28 | 730 | O=C(CC1CCN(C(=O)c2ccc3nc(-c4ccccc4)oc3c2)CC1)NC1CC1
29 | 1020 | CCOc1ccccc1NC(=O)Cn1nc2cc(-c3ccc(OC)cc3)nc(C)n2c1=O
30 | 790 | Cc1cc(C)c(-c2noc(C)n2)c(NC(=O)c2ccc(Cl)cc2)n1
31 | 1170 | COc1cccc(-c2csc(-c3nnn(-c4ccc(C)c(C)c4)c3N)n2)c1

Second part, the compound before the results:

Row | SMILES | RP-LC retention time [s]
32 | Cc1ccsc1C(=O)Nc1cccn2nc(C3CCC3)nc12 | 1030
33 | O=C(O)c1cn(CCOc2ccccc2)c2ccccc12 | 885
34 | CC1=C(c2ccccc2)S(=O)(=O)N=C1N1CCCN(C(=O)NC(C)(C)C)CC1 | 790
35 | Cc1cc2c(N3CCCC(C(=O)NCc4ccccc4Br)C3)nccc2s1 (stereo not given) | 714
36 | CC(C)Cn1c(=O)c(N2CCN(S(=O)(=O)c3cccc(F)c3)CC2)nc2ccncc21 | 636
37 | O=C(CCC1CCCC1)N1CCN(c2nnc3ccc(Cl)cn23)CC1 | 832
38 | C[C@H]1CCC/C=C/[C@@H]2C[C@H](O)C[C@H]2[C@H](O)/C=C/C(=O)O1 | 782
39 | CCCOC(=O)C1=CN(C)S(=O)(=O)N=C1C | 796
40 | Cc1cccc2c(=O)n(C3CCN(C(=O)Nc4ccccc4)CC3)cnc12 | 751
41 | CCCCN(C)C(=O)Cn1c(=O)c2cnc(-c3ccccc3)nc2n(C)c1=O | 1000
42 | CS(=O)(=O)N1CCC(C(=O)Nc2cc(N3CCOCC3)ncn2)CC1 | 563
43 | CCc1ccccc1NS(=O)(=O)c1c(C)sc(C)c1-c1cc(C(F)(F)F)on1 | 1240
44 | Cc1ccccc1S(=O)(=O)N1CCC(OCCOCc2ccccc2)CC1 | 1130
45 | CCOC(=O)c1cccc(NC(=O)CCc2c(-c3ccc(Cl)cc3)nc3ccccn23)c1 | 739
46 | O=C(NC1CCCC1)C(=O)c1cccn1Cc1ccc(F)cc1 | 1020
47 | CCOc1ccc(N2CC(C)Cn3c2nc2c3c(=O)n(C)c(=O)n2C)cc1 (stereo not given) | 831
48 | CO[C@@H]1[C@H](OC(=O)/C=C/C=C/C=C/C=C/C(=O)O)CC[C@]2(CO2)[C@H]1[C@@]1(C)O[C@@H]1CC=C(C)C | 954
49 | Cc1nc2nc(-c3ccc(C(C)(C)C)cc3)nn2c(C)c1CC(=O)N(C)Cc1ccccc1 | 1110
50 | CCOc1ccccc1NC(=O)N1CCC(C)(C(=O)NCc2ccc(F)cc2)CC1 | 906
51 | Cc1ccc(NC(=O)N2CCC(C(C)C(=O)Nc3ccc(C)c(C)c3)CC2)cc1 (stereo not given) | 932

Row | SMILES | RP-LC retention time [s]
52 | C=CCNC(=O)C1CCN(C(=O)Nc2ccc(NC(=O)Nc3ccc(C)cc3C)cc2)CC1 | 728
53 | Cn1nc2n(c1=O)CCN(C(=O)Cc1cccs1)CC2 | 610
54 | Cc1ccccc1NC(=O)Cn1nc(N2CCC(C)CC2)c2ccccc2c1=O | 1110
55 | CCOc1ccc(OCC)c(N2C=C(C#N)S(=O)(=O)c3c(F)cccc32)c1 | 923
56 | O=C(Cc1nnc2cc(-c3nc(C4CC4)no3)ccn12)N1CCCCCC1 | 685
57 | CN(CC#N)C(=O)c1ccc(N2CCc3ccccc32)s1 | 913
58 | Cc1cc([N+](=O)[O-])ccc1NS(=O)(=O)c1cc(Cl)ccc1Cl | 1020
59 | CN1CCCn2cc(S(=O)(=O)Nc3ccc(Cl)cc3)cc2C1=O | 714
60 | Cc1ccc(CNC(=O)C2(C)CN(S(C)(=O)=O)CC(=O)N2c2ccc(Cl)cc2)cc1 (stereo not given) | 850
61 | CCOC(=O)c1c(S(=O)(=O)N2CCC(C(=O)NC(C)CC)CC2)c(C)n(C)c1C (stereo not given) | 747
62 | Cc1noc(C)c1Cc1ccc(C(=O)N2CCc3nn(C)c(=O)n3CC2)o1 | 633
63 | CC1(C(=O)NCc2ccc(F)cc2)CCN(C(=O)Nc2ccc3c(c2)OCCO3)CC1 | 653
64 | CC(C)CC(=O)N1CCC(C(=O)N2CCCCCCNC(=O)CC2)CC1 | 640
65 | O=C(c1ccccn1)N1CCN(c2cc(-c3cccs3)[nH]n2)CC1 | 648
66 | Cc1ccc(NC(=O)Nc2cccn3nc(C(C)C)nc23)cc1 | 964
67 | CCOc1ccc(C(=O)N2CCC3(CC2)N=C(c2ccccc2)NO3)cc1 | 799
68 | Cc1cccn2cc(C(=O)NCc3ccc(N(C)C)cc3)nc12 | 565
69 | CCN(Cc1ccccc1)C(=O)c1cn2cc(Cl)ccc2n1 | 860
70 | Cc1cc(=O)n2c3c(c4c(cc13)c(CN(C)C)cc(=O)n4C)OC2 | 601
71 | Cc1noc(C)c1CC(=O)NCCc1noc(C2CC2)n1 | 628

Row | SMILES | RP-LC retention time [s]
72 | COc1nc2ccccc2nc1N1CCCC(C(=O)NC2CCCC(C)C2C)C1 (stereo not given) | 1160
73 | O=C(Cn1nc(C(=O)N2CCCC2)c2ccccc21)NCc1ccc(F)cc1 | 780
74 | CCCc1ccc(S(=O)(=O)N2CCC(n3c(-c4ccoc4)nc4cccnc43)C2)cc1 (stereo not given) | 1020
75 | CCc1ccc(NS(=O)(=O)c2c(C)nc3sc4cc(C)ccc4n3c2=O)cc1 | 1240
76 | O=S(=O)(c1cc(-c2nnc(C3CCCC3)o2)co1)N1CCCCC1 | 1000
77 | O=c1ccc(N2CCC(NS(=O)(=O)c3ccc(Cl)s3)CC2)nn1CC1CC1 | 875
78 | Cc1nn2c(NC(=O)CSc3nnc4sc5ccccc5n34)csc2nc1=O | 635
79 | c1ccc2sc(SCc3cn4cccnc4n3)nc2c1 | 622
80 | Clc1cccc(CNc2cc(-n3ccnc3)ncn2)c1 | 589
81 | Cc1sc2ccn(CC(C)C)c(=O)c2c1C(=O)NC(C)c1ccc(F)cc1 (stereo not given) | 1030
82 | CCn1cc(-c2ccncc2)cc1C(=O)NCc1cc(C)ccc1C | 705
83 | O=C1NC2(CCN(C(=O)NCCc3ccccc3)CC2)Nc2c(Cl)cccc21 | 773
84 | CCOC(=O)CCNC(=O)N1CCc2cc(-c3ccc(C(=O)N4CCOCC4)cc3)ccc21 | 724
85 | O=C(O)[C@@H]1OCC(=O)N(C2CC2)[C@H]1c1ccccc1 | 648
86 | O=C(NCC(O)c1ccsc1)NC1CCCCC1 (stereo not given) | 658
87 | CCCN(CCC)[C@@H]1CCc2cccc(O)c2C1 | 691
88 | COc1ccc2c(c1)C1(CCN(S(=O)(=O)c3ccc(F)cc3)C1)C(=O)N2 (stereo not given) | 820
89 | Cc1ccccc1CSc1ncnc2nc[nH]c12 | 744
90 | O=C(Cn1nc(C(=O)N2CCOCC2)c2ccccc21)Nc1cccc(Cl)c1 | 816
